In patent US7799809B2, “Carboxamide compounds and their use as calpain inhibitors” (Abbott GmbH & Co. KG, priority 2006, dated 2010):

What was measured:
Format in all cases: biochemical
cathepsin L = target: T1, cathepsin L (Homo sapiens, UniProt P07711); test: Cathepsin L enzyme inhibition in vitro (kinetic fluorescence assay); details: cathepsin L isolated from human liver vs calpain I
T1 construct: cathepsin L—isolated from human liver (Calbiochem #219402); purchased Calbiochem 219402; host or cells: human liver (tissue-derived)
How it was run: (§1)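 Inhibition is measured at room temperature in cysteine-containing MES buffer, pH 6.0, by continuous fluorescence at 460 nm. Cathepsin S (0.5 nM) uses 20 μM Z-Val-Val-Arg-AMC; L (1 nM) and B (0.25 nM) use Z-Phe-Arg-AMC at 2 and 100 μM respectively.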

cathepsin S = target: T2, cathepsin S (Homo sapiens, UniProt P25774); test: Cathepsin S enzyme inhibition in vitro (kinetic fluorescence assay); details: recombinant human cathepsin S vs calpain I
T2 construct: purchased Calbiochem 219343; host or cells: E. coli
How it was run: as §1

cathepsin K = target: T3, cathepsin K (Homo sapiens, UniProt P43235); test: Cathepsin K enzyme inhibition in vitro (kinetic fluorescence assay); details: cathepsin K activated from recombinant human procathepsin K vs calpain I
T3 construct: purchased Calbiochem 342001; host or cells: E. coli
T3 sequence (P43235 115-329): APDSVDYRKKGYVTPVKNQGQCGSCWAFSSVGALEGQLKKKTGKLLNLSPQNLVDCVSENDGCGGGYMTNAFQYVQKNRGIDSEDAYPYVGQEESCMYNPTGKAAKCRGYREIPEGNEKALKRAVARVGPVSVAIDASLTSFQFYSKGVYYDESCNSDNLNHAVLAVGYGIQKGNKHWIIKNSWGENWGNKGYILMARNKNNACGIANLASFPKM

cathepsin B = target: T4, cathepsin B (Homo sapiens, UniProt P07858); test: Cathepsin B enzyme inhibition in vitro (kinetic fluorescence assay); details: cathepsin B isolated from human liver vs calpain I
T4 construct: cathepsin B—isolated from human liver (Calbiochem #219362); purchased Calbiochem 219362; host or cells: human liver (tissue-derived)
How it was run: as §1

T2 sequence (P25774 115-331): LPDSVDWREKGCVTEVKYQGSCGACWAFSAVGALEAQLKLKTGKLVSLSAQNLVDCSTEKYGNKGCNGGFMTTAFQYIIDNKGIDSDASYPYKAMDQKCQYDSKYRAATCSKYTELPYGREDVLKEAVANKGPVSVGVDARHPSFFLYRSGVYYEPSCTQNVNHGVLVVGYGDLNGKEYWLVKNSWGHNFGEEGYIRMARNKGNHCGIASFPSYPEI
T1 sequence (P07711 114-333): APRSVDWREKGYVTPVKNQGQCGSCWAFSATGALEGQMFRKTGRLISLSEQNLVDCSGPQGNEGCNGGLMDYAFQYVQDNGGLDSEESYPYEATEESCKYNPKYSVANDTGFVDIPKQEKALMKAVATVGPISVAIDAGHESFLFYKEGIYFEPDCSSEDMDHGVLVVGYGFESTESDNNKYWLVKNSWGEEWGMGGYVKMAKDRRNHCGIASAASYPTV

SMILES	Sel cat. L: Ki(cathepsin L)/Ki(calpain) ratio (cathepsin L)	Sel cat. S: Ki(cathepsin S)/Ki(calpain) ratio (cathepsin S)	Sel cat. K: Ki(cathepsin K)/Ki(calpain) ratio (cathepsin K)	Sel cat. B: Ki(cathepsin B)/Ki(calpain) ratio (cathepsin B)
NC(=O)C(=O)C(Cc1ccccc1)NC(=O)c1cccnc1-n1ccc(-c2cc(C(F)(F)F)ccc2CN2CCOCC2)n1 (centres unmarked) [Example 163, N-[3-Amino-2,3-dioxo-1-(phenylmethyl)propyl]-2-{3-[2-(morpholin-4-ylmethyl)-5-(trifluoromethyl)phenyl]-1H-pyrazol-1-yl}pyridine-3-carboxamide]	+ (+ means 30≦Ki(cathepsin L)/Ki(calpain)<50)	++ (++ means a Ki(cathepsin S)/Ki(calpain) ratio of ≧100)	+ (+ means 10≦Ki(cathepsin K)/Ki(calpain)<30)	+ (+ means 10≦Ki(cathepsin B)/Ki(calpain)<30)
NC(=O)C(=O)C(Cc1ccccc1)NC(=O)c1cccnc1-n1ccc(-c2cc(F)cc(F)c2)n1 (centres unmarked) [Example 91, N-[3-Amino-2,3-dioxo-1-(phenylmethyl)propyl]-2-[3-(3,5-difluorophenyl)-1H-pyrazol-1-yl]pyridine-3-carboxamide]	++ (++ means a Ki(cathepsin L)/Ki(calpain) ratio of ≧50)	++ (++ means a Ki(cathepsin S)/Ki(calpain) ratio of ≧100)	+ (+ means 10≦Ki(cathepsin K)/Ki(calpain)<30)	++ (++ means a Ki(cathepsin B)/Ki(calpain) ratio of ≧30)
NC(=O)C(=O)C(Cc1ccccc1)NC(=O)c1cccnc1-n1cc(Cl)c(-c2ccc(F)cc2)n1 (centres unmarked) [Example 184, N-[3-Amino-2,3-dioxo-1-(phenylmethyl)propyl]-2-[4-chloro-3-(4-fluorophenyl)-1H-pyrazol-1-yl]pyridine-3-carboxamide]	++ (++ means a Ki(cathepsin L)/Ki(calpain) ratio of ≧50)	++ (++ means a Ki(cathepsin S)/Ki(calpain) ratio of ≧100)	+ (+ means 10≦Ki(cathepsin K)/Ki(calpain)<30)	+ (+ means 10≦Ki(cathepsin B)/Ki(calpain)<30)
NC(=O)C(=O)C(Cc1ccccc1)NC(=O)c1cccnc1-n1ccc(-c2c(F)cccc2F)n1 (centres unmarked) [Example 85, N-[3-Amino-2,3-dioxo-1-(phenylmethyl)propyl]-2-[3-(2,6-difluorophenyl)-1H-pyrazol-1-yl]pyridine-3-carboxamide]	++ (++ means a Ki(cathepsin L)/Ki(calpain) ratio of ≧50)	++ (++ means a Ki(cathepsin S)/Ki(calpain) ratio of ≧100)	++ (++ means a Ki(cathepsin K)/Ki(calpain) ratio of ≧30)	+ (+ means 10≦Ki(cathepsin B)/Ki(calpain)<30)
COc1ccc2c(c1)-c1nn(-c3ncccc3C(=O)NC(Cc3ccccc3)C(=O)C(N)=O)cc1CO2 (centres unmarked) [Example 183, N-[3-Aamino-2,3-dioxo-1-(phenylmethyl)propyl]-2-[8-(methyloxy)chromeno[4,3-c]pyrazol-2(4H)-yl]pyridine-3-carboxamide]	++ (++ means a Ki(cathepsin L)/Ki(calpain) ratio of ≧50)	++ (++ means a Ki(cathepsin S)/Ki(calpain) ratio of ≧100)	+ (+ means 10≦Ki(cathepsin K)/Ki(calpain)<30)	+ (+ means 10≦Ki(cathepsin B)/Ki(calpain)<30)
NC(=O)C(=O)C(Cc1ccc(Cl)cc1)NC(=O)c1cccnc1-n1ccc(-c2ccc(F)cc2)n1 (centres unmarked) [Example 67, N-[3-Amino-1-(4-chlorobenzyl)-2,3-dioxopropyl]-2-[3-(4-fluorophenyl)-1H-pyrazol-1-yl]nicotinamide]	++ (++ means a Ki(cathepsin L)/Ki(calpain) ratio of ≧50)	++ (++ means a Ki(cathepsin S)/Ki(calpain) ratio of ≧100)	+ (+ means 10≦Ki(cathepsin K)/Ki(calpain)<30)	+ (+ means 10≦Ki(cathepsin B)/Ki(calpain)<30)
COc1ccc(-c2ccn(-c3ncccc3C(=O)NC(Cc3ccccc3)C(=O)C(N)=O)n2)cc1 (centres unmarked) [Example 48, N-(3-Amino-1-benzyl-2,3-dioxopropyl)-2-[3-(4-methoxyphenyl)-1H-pyrazol-1-yl]nicotinamide]	++ (++ means a Ki(cathepsin L)/Ki(calpain) ratio of ≧50)	++ (++ means a Ki(cathepsin S)/Ki(calpain) ratio of ≧100)	+ (+ means 10≦Ki(cathepsin K)/Ki(calpain)<30)	+ (+ means 10≦Ki(cathepsin B)/Ki(calpain)<30)
NC(=O)C(=O)C(Cc1ccccc1)NC(=O)c1cccnc1-n1ccc(-c2cccc3ccccc23)n1 (centres unmarked) [Example 110, N-[3-Amino-2,3-dioxo-1-(phenylmethyl)propyl]-2-(3-naphthalen-1-yl-1H-pyrazol-1-yl)pyridine-3-carboxamide]	++ (++ means a Ki(cathepsin L)/Ki(calpain) ratio of ≧50)	++ (++ means a Ki(cathepsin S)/Ki(calpain) ratio of ≧100)	++ (++ means a Ki(cathepsin K)/Ki(calpain) ratio of ≧30)	++ (++ means a Ki(cathepsin B)/Ki(calpain) ratio of ≧30)
NC(=O)C(=O)[C@H](Cc1ccccc1)NC(=O)c1cccnc1-n1ccc(-c2ccccc2)n1 [Example 107, N-[(1S)-3-Amino-2,3-dioxo-1-(phenylmethyl)propyl]-2-(3-phenyl-1H-pyrazol-1-yl)pyridine-3-carboxamide]	++ (++ means a Ki(cathepsin L)/Ki(calpain) ratio of ≧50)	++ (++ means a Ki(cathepsin S)/Ki(calpain) ratio of ≧100)	+ (+ means 10≦Ki(cathepsin K)/Ki(calpain)<30)	+ (+ means 10≦Ki(cathepsin B)/Ki(calpain)<30)
COc1ccc(CC(NC(=O)c2cccnc2-n2ccc(-c3ccccc3F)n2)C(=O)C(N)=O)cc1 (centres unmarked) [Example 92, N-(3-Amino-1-{[4-(methyloxy)phenyl]methyl}-2,3-dioxopropyl)-2-[3-(2-fluorophenyl)-1H-pyrazol-1-yl]pyridine-3-carboxamide]	++ (++ means a Ki(cathepsin L)/Ki(calpain) ratio of ≧50)	++ (++ means a Ki(cathepsin S)/Ki(calpain) ratio of ≧100)	+ (+ means 10≦Ki(cathepsin K)/Ki(calpain)<30)	++ (++ means a Ki(cathepsin B)/Ki(calpain) ratio of ≧30)
NC(=O)C(=O)C(Cc1ccccc1)NC(=O)c1cccnc1-n1ccc(-c2ccc(F)cc2Cl)n1 (centres unmarked) [Example 71, N-(3-Amino-1-benzyl-2,3-dioxopropyl)-2-[3-(2-chloro-4-fluorophenyl)-1H-pyrazol-1-yl]nicotinamide]	++ (++ means a Ki(cathepsin L)/Ki(calpain) ratio of ≧50)	++ (++ means a Ki(cathepsin S)/Ki(calpain) ratio of ≧100)	++ (++ means a Ki(cathepsin K)/Ki(calpain) ratio of ≧30)	++ (++ means a Ki(cathepsin B)/Ki(calpain) ratio of ≧30)
Cc1ccccc1-c1ccn(-c2ncccc2C(=O)NC(Cc2ccccc2)C(=O)C(N)=O)n1 (centres unmarked) [Example 93, N-[3-Amino-2,3-dioxo-1-(phenylmethyl)propyl]-2-[3-(2-methylphenyl)-1H-pyrazol-1-yl]pyridine-3-carboxamide]	++ (++ means a Ki(cathepsin L)/Ki(calpain) ratio of ≧50)	++ (++ means a Ki(cathepsin S)/Ki(calpain) ratio of ≧100)	+ (+ means 10≦Ki(cathepsin K)/Ki(calpain)<30)	++ (++ means a Ki(cathepsin B)/Ki(calpain) ratio of ≧30)
NC(=O)C(=O)C(Cc1ccccc1)NC(=O)c1cccnc1-n1ccc(-c2cccc(OC(F)(F)F)c2)n1 (centres unmarked) [Example 168, N-[3-Amino-2,3-dioxo-1-(phenylmethyl)propyl]-2-(3-{3-[(trifluoromethyl)oxy]phenyl}-1H-pyrazol-1-yl)pyridine-3-carboxamide]	++ (++ means a Ki(cathepsin L)/Ki(calpain) ratio of ≧50)	++ (++ means a Ki(cathepsin S)/Ki(calpain) ratio of ≧100)	+ (+ means 10≦Ki(cathepsin K)/Ki(calpain)<30)	+ (+ means 10≦Ki(cathepsin B)/Ki(calpain)<30)
NC(=O)C(=O)C(Cc1ccccc1)NC(=O)c1cccnc1-n1ccc(-c2cccc3c2OCC3)n1 (centres unmarked) [Example 164, N-[3-Amino-2,3-dioxo-1-(phenylmethyl)propyl]-2-[3-(2,3-dihydro-1-benzofuran-7-yl)-1H-pyrazol-1-yl]pyridine-3-carboxamide]	++ (++ means a Ki(cathepsin L)/Ki(calpain) ratio of ≧50)	++ (++ means a Ki(cathepsin S)/Ki(calpain) ratio of ≧100)	++ (++ means a Ki(cathepsin K)/Ki(calpain) ratio of ≧30)	+ (+ means 10≦Ki(cathepsin B)/Ki(calpain)<30)
